# According to ChEMBL document CHEMBL3885861, “Open TG-GATES”:
# Species on record: Rattus norvegicus
# Assay: Open TG-GATES - Regimen: Single
# Type: toxicity, organism-based, Sprague-Dawley
# Design: regimen Single, gender Male, age 6 weeks
# Settings: in vivo, po, 1000 mg/kg, route gavage, dose level High; for APTT / Bas / Eos / Fbg / Hb / Ht / Lym / MCH / MCHC / MCV / Mono / Neu / PT / Plat / RBC / Ret / WBC: tissue Blood; for KIDNEY_L / KIDNEY_R / KIDNEY_TOTAL: tissue Kidney; for LIVER: tissue Liver; for A/G / ALP / ALT / AST / BUN / CRE / Ca / Cl / DBIL / GLC / IP / K / LDH / Na / PL / RALB / TBIL / TC / TG / TP / gamma-GTP: tissue Plasma
compound,measurement,setting,value
CN/C(=N/CCSCc1nc[nH]c1C)NC#N [CIMETIDINE],TERMINAL_BW,3 h,215.2 g
same,APTT,3 h,19.1 s
same,Bas,3 h,0%
same,Eos,3 h,1%
same,Fbg,3 h,216.2 mg/dL
same,Hb,3 h,12.3 g/dL
same,Ht,3 h,36.7%
same,Lym,3 h,76.4%
same,MCH,3 h,21.2 pg
same,MCHC,3 h,33.5%
same,MCV,3 h,63.1 fL
same,Mono,3 h,3%
same,Neu,3 h,18.6%
same,PT,3 h,13.1 s
same,Plat,3 h,126.2 x10_4/uL
same,RBC,3 h,582 x10_4/ul
same,Ret,3 h,7.9%
same,WBC,3 h,89.9 x10_2/uL
same,KIDNEY_L,3 h,1 g
same,KIDNEY_R,3 h,1 g
same,KIDNEY_TOTAL,3 h,2 g
same,LIVER,3 h,9.8 g
same,A/G,3 h,1.7
same,ALP,3 h,1031 IU/L
same,ALT,3 h,35.6 IU/L
same,AST,3 h,67 IU/L
same,BUN,3 h,8.6 mg/dL
same,CRE,3 h,0.4 mg/dL
same,Ca,3 h,10.6 mg/dL
same,Cl,3 h,104.4 meq/L
same,DBIL,3 h,0.068 mg/dL
same,GLC,3 h,181.8 mg/dL
same,IP,3 h,8.3 mg/dL
same,K,3 h,4 meq/L
same,LDH,3 h,175 IU/L
same,Na,3 h,141.4 meq/L
same,PL,3 h,150.2 mg/dL
same,RALB,3 h,3.3 g/dL
same,TBIL,3 h,0.1 mg/dL
same,TC,3 h,77.6 mg/dL
same,TG,3 h,46.6 mg/dL
same,TP,3 h,5.3 g/dL
same,gamma-GTP,3 h,1 IU/L
same,TERMINAL_BW,6 h,211.9 g
same,APTT,6 h,19 s
same,Bas,6 h,0%
same,Eos,6 h,0.8%
same,Fbg,6 h,227.4 mg/dL
same,Hb,6 h,13.2 g/dL
same,Ht,6 h,38.2%
same,Lym,6 h,78%
same,MCH,6 h,21.7 pg
same,MCHC,6 h,34.5%
same,MCV,6 h,63 fL
same,Mono,6 h,2.8%
same,Neu,6 h,17.2%
same,PT,6 h,13.5 s
same,Plat,6 h,125.8 x10_4/uL
same,RBC,6 h,607.4 x10_4/ul
same,Ret,6 h,7.6%
same,WBC,6 h,100.8 x10_2/uL
same,KIDNEY_L,6 h,1 g
same,KIDNEY_R,6 h,1 g
same,KIDNEY_TOTAL,6 h,2 g
same,LIVER,6 h,9.6 g
same,A/G,6 h,1.5
same,ALP,6 h,955 IU/L
same,ALT,6 h,34.2 IU/L
same,AST,6 h,65.8 IU/L
same,BUN,6 h,8.2 mg/dL
same,CRE,6 h,0.4 mg/dL
same,Ca,6 h,10.6 mg/dL
same,Cl,6 h,103.6 meq/L
same,DBIL,6 h,0.078 mg/dL
same,GLC,6 h,200.8 mg/dL
same,IP,6 h,9.8 mg/dL
same,K,6 h,4 meq/L
same,LDH,6 h,162.2 IU/L
same,Na,6 h,142.4 meq/L
same,PL,6 h,153.4 mg/dL
same,RALB,6 h,3.4 g/dL
same,TBIL,6 h,0.1 mg/dL
same,TC,6 h,75.6 mg/dL
same,TG,6 h,83.2 mg/dL
same,TP,6 h,5.6 g/dL
same,gamma-GTP,6 h,1.2 IU/L
same,TERMINAL_BW,9 h,208.6 g
same,APTT,9 h,18.7 s
same,Bas,9 h,0%
same,Eos,9 h,1%
same,Fbg,9 h,229.2 mg/dL
same,Hb,9 h,13.1 g/dL
same,Ht,9 h,37.4%
same,Lym,9 h,80%
same,MCH,9 h,22.1 pg
same,MCHC,9 h,35.1%
same,MCV,9 h,63 fL
same,Mono,9 h,2.4%
same,Neu,9 h,15.6%
same,PT,9 h,14.1 s
same,Plat,9 h,120.4 x10_4/uL
same,RBC,9 h,594.2 x10_4/ul
same,Ret,9 h,7.9%
same,WBC,9 h,94.9 x10_2/uL
same,KIDNEY_L,9 h,0.9 g
same,KIDNEY_R,9 h,0.9 g
same,KIDNEY_TOTAL,9 h,1.9 g
same,LIVER,9 h,8.9 g
same,A/G,9 h,1.7
same,ALP,9 h,1031 IU/L
same,ALT,9 h,32.8 IU/L
same,AST,9 h,62.4 IU/L
same,BUN,9 h,8.2 mg/dL
same,CRE,9 h,0.4 mg/dL
same,Ca,9 h,10.3 mg/dL
same,Cl,9 h,103.6 meq/L
same,DBIL,9 h,0.068 mg/dL
same,GLC,9 h,193.6 mg/dL
same,IP,9 h,9.7 mg/dL
same,K,9 h,3.7 meq/L
same,LDH,9 h,157 IU/L
same,Na,9 h,142 meq/L
same,PL,9 h,150.4 mg/dL
same,RALB,9 h,3.5 g/dL
same,TBIL,9 h,0.1 mg/dL
same,TC,9 h,77.2 mg/dL
same,TG,9 h,58.6 mg/dL
same,TP,9 h,5.5 g/dL
same,gamma-GTP,9 h,1.4 IU/L
same,TERMINAL_BW,24 h,223 g
same,APTT,24 h,19.3 s
same,Bas,24 h,0%
same,Eos,24 h,1%
same,Fbg,24 h,212.4 mg/dL
same,Hb,24 h,13.1 g/dL
same,Ht,24 h,39%
same,Lym,24 h,80.6%
same,MCH,24 h,21.3 pg
same,MCHC,24 h,33.6%
same,MCV,24 h,63.4 fL
same,Mono,24 h,2.4%
same,Neu,24 h,14.8%
same,PT,24 h,13 s
same,Plat,24 h,122.4 x10_4/uL
same,RBC,24 h,616 x10_4/ul
same,Ret,24 h,6.8%
same,WBC,24 h,101.7 x10_2/uL
same,KIDNEY_L,24 h,1 g
same,KIDNEY_R,24 h,1 g
same,KIDNEY_TOTAL,24 h,2 g
same,LIVER,24 h,10.6 g
same,A/G,24 h,1.6
same,ALP,24 h,1054.4 IU/L
same,ALT,24 h,34.2 IU/L
same,AST,24 h,68.8 IU/L
same,BUN,24 h,17.8 mg/dL
same,CRE,24 h,0.4 mg/dL
same,Ca,24 h,10.6 mg/dL
same,Cl,24 h,102 meq/L
same,DBIL,24 h,0.1 mg/dL
same,GLC,24 h,206.8 mg/dL
same,IP,24 h,7.7 mg/dL
same,K,24 h,3.8 meq/L
same,LDH,24 h,200 IU/L
same,Na,24 h,140 meq/L
same,PL,24 h,148 mg/dL
same,RALB,24 h,3.3 g/dL
same,TBIL,24 h,0.2 mg/dL
same,TC,24 h,76.2 mg/dL
same,TG,24 h,96.2 mg/dL
same,TP,24 h,5.4 g/dL
same,gamma-GTP,24 h,1.4 IU/L
